Data taken from US8957057B2 (priority 2009, dated 2015).
Several values for one entry are separate records, joined by “and”; a condition that tells them apart may be missing. Equal values may be shown once.

Columns and labels:
[1] = test system: Prostate specific antigen (PSA) secretion in LNCap.FGC cells; assay: cells; conditions: for PSA concentration: 48 hours
Excerpt: Prostate specific antigen (PSA) is a protein secreted by the […] cells of prostate. PSA facilitates semen liquification and presents in male serum in minute amount. In the serum of male subjects suffering from prostate cancer, benign prostatic hyperplasia or prostatic infection, the quantity of PSA presented in serum may increase. Therefore, PSA is so far the most valuable marker in screening and diagnosing prostate tumors. PSA also plays an important role in determining a cancer's stage of development and evaluating the effect of treatment. The amounts of PSA were determined by using Prostate Specific Antigen ELISA kit (Cat. No. BQ067T, Bio Quant, USA). […] 50 μl of each of the retrieved culture media and 50 μl of each of the standard PSA of 0, 2, 4, 8, 25, and 50 ng/ml were added to the wells of a 96-well plate, respectively. Then, 50 μl assay buffer was further added to the wells, and the plate was incubated at room temperature in the dark for 30 minutes. The supernatant was removed and the wells were washed three times with 300 μl wash buffer. […] The supernatant was removed and the wells and washed three times with 300 μl wash buffer. […] Within 15 minutes after completion of the previous step, the wells were examined by a ELISA Reader at 450 nm.

androgen receptor = androgen receptor (Homo sapiens, UniProt P10275); assay: cell-based; assay type: cell-based
Description: Human MDA-MB-453 cells were used in this assay. The cells in the exponential phase of growth (cultured in RPMI 1640 medium (Gibco, USA), 10% FBS) were washed off with 1 ml of 0.05% trypsin, centrifuged and collected in a centrifuge tube. 1×10^7 cells were resuspended in 270 μl BES medium (5 mM BES in RPMI 1640 medium) and 8 to 10 μg of pPSA-SEAP2 plasmid (see FIG. 4) were also added to the medium.
25 μl of media were retrieved from each cell of the 96-well plate and heated in a 65° C. water bath for 30 minutes. The media were then treated by Phospha-Light™ assay system (Applied Biosystem) in order to detect the secreted alkaline phosphatase (SEAP) reporter protein. The intensity of luminescence was detected by Victor™ Light luminescence counter to determine the activity of the samples in the modulation of the androgen receptor.
Human MDA-MB-453 cells were used in this assay. The cells in the exponential phase of growth (cultured in RPMI 1640 medium (Gibco), 10% FBS) were washed off with 1 ml of 0.05% trypsin, centrifuged and collected in a centrifuge tube. 1×10^7 cells were resuspended in 270 μl BES medium (5 mM BES in RPMI 1640 medium) and 8 to 10 μg of pPSA-SEAP2 plasmid (see FIG. 4) were also added to the medium.

LNCap.FGC cells = conditions: MTT, 72 hours, up to 20 μM
Description: (§1) The survive rate of cell was determined by the MTT (3-(4,5-dimethyl-2-thiazolyl)-2,5-diphenyl tetrazolium bromide) method.
(§2) The supernatant of the culture was removed.

[2] = test system: MRC-5, MCF-7, HepG2, AGS, HeLa, HEK 293 cells; conditions: MTT, 72 hours, up to 20 μM
Description: as §1, §2

Sequence of androgen receptor (P10275 whole entry, looked up): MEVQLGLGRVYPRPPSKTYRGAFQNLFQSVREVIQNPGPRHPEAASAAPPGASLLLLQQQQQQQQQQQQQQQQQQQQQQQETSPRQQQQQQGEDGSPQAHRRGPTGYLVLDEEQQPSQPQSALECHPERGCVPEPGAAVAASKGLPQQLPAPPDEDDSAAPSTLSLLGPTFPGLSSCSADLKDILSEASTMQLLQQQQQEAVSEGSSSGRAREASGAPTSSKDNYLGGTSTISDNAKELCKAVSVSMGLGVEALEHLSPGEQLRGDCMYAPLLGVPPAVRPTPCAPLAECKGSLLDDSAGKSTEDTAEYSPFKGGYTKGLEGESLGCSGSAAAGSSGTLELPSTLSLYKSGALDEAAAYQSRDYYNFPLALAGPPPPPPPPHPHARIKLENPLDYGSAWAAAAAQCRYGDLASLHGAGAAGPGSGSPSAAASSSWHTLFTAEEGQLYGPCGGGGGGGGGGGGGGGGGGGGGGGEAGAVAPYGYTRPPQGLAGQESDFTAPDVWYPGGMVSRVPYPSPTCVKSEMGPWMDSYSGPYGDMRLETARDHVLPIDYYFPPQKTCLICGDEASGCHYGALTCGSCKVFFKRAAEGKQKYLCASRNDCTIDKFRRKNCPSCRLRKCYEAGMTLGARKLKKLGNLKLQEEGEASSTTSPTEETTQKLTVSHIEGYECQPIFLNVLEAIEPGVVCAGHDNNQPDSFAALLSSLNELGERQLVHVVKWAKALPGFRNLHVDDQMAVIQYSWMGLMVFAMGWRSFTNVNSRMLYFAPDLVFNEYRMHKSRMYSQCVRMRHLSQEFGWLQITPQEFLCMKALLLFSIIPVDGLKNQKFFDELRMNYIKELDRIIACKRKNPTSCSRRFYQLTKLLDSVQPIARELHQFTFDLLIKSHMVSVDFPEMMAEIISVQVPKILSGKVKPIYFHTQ

Structure (SMILES): C[C@]12CCC(=O)C[C@@H]1CC[C@@H]1[C@@H]2CC[C@]2(C)[C@@H](O)CC[C@@H]12 [DHT, 5α-dihydrotestosterone, reference compound]
- PSA concentration ([1]; DHT 5 nM alone): 12.61 ng/mL

Structure (SMILES): C/C=C/C1=CC2=C(CO1)C(=O)[C@]1(C)OC(=O)[C@H](C(=O)CCCCCCC)[C@H]1C2 [ankaflavin]
- inhibition at 26 µM (androgen receptor; MDA-MB-453, read-out: inhibition of the reporter activity): 41%

Structure (SMILES): C/C=C/C1=CC2=C(CO1)C(=O)[C@]1(C)OC(=O)[C@H](C(=O)CCCCC)[C@H]1C2 [monascin]
- inhibition of the reporter activity (androgen receptor): 55%

Structure (SMILES): C/C=C/C1=CC2=C(CO1)C(=O)[C@]1(C)OC(=O)[C@H]([C@@H](O)CCCCC)[C@H]1C2 [monascuspiloin, (3S,3aR,9aR)-3a,4-dihydro-3-((S)-1-hydroxyhexyl)-9a-methyl-6-((E)-prop-1-enyl)-3H-furo [3,2-g]isochromene-2,9(8H,9aH)-dione]
- PSA concentration ([1]; DHT 5 nM + Monascuspiloin 5 μM): 10.27 ng/mL
- PSA concentration ([1]; DHT 5 nM + Monascuspiloin 10 μM): 9.71 ng/mL
- PSA concentration ([1]; DHT 5 nM + Monascuspiloin 25 μM): 8.77 ng/mL
- inhibition at 20 µM ([1]; Homo sapiens, read-out: inhibition of the production of PSA induced by DHT): 43%
- cytotoxic effect on LNCap.FGC (LNCap.FGC cells): does not have a significant cytotoxic effect
- cytotoxic effect on the other 6 non-human-prostate-cancer cell lines [2]: does not have a significant cytotoxic effect
- IC50 (androgen receptor; read-out: IC50 for inhibition of the activation of the androgen receptor): ~12 µM and 12 µM
